From PubChem BioAssay (NCI)
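Each compound was tested at five concentrations against cells in 96-well plates for 48 hours. GI50: concentration for 50% inhibition of growth. TGI marks complete inhibition of growth.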

Key:
Experiment in all cases: NCI-60 cell line screen, 48 h
[1] = tested on: OVCAR-4 ovarian
[2] = tested on: UO-31 renal
[3] = tested on: OVCAR-5 ovarian
[4] = tested on: SNB-19 CNS
[5] = tested on: SF-268 CNS
[6] = tested on: NCI-H226 lung
[7] = tested on: MALME-3M melanoma
[8] = tested on: SN12C renal
[9] = tested on: CAKI-1 renal
[10] = tested on: BT-549 breast

SMILES | GI50 [1] | TGI [1] | GI50 [2] | TGI [2] | GI50 [3] | TGI [3] | GI50 [4] | TGI [4] | GI50 [5] | TGI [5] | GI50 [6] | TGI [6] | GI50 [7] | TGI [7] | GI50 [8] | TGI [8] | GI50 [9] | TGI [9] | GI50 [10] | TGI [10]
O=[N+]([O-])c1ccc(N/N=C\c2cc(Cl)ccc2O)nc1 | 1720 nM | 13.7 µM | 300 nM | 5.45 µM | 8.88 µM | > 100 µM | 3.41 µM | > 100 µM | 0.595 µM | 22.9 µM | 20.9 µM | > 100 µM | 2680 nM | 20.5 µM | 2.99 µM | > 100 µM | 278 nM | 1.07 µM | 3.23 µM | 14.9 µM
CC1(C)CC(=O)C2=C(C1)NC(SSC1=C(C#N)C(c3ccccc3)C3=C(CC(C)(C)CC3=O)N1)=C(C#N)C2c1ccccc1 (stereo not drawn) | 23.6 µg/mL | 44.8 µg/mL | 21 µg/mL | 40.5 µg/mL | 27.8 µg/mL | 50.9 µg/mL | 89.2 µg/mL | > 150 µg/mL | 28 µg/mL | 53.7 µg/mL | 32 µg/mL | 70.8 µg/mL | 27.3 µg/mL | 48.6 µg/mL | 23.5 µg/mL | 43.7 µg/mL | 28.3 µg/mL | 49.4 µg/mL | 27.6 µg/mL | 48.6 µg/mL
CC(=O)c1ccc(Nc2cc(-n3ccnc3)nc3ccccc23)cc1 | > 100000 nM | > 100 µM | 66700 nM | > 100 µM | > 100 µM | > 100 µM | > 100 µM | > 100 µM | 14.8 µM | 67.7 µM | 24.4 µM | 92.1 µM | 15400 nM | 56.5 µM | 45.8 µM | > 100 µM | 1710 nM | 7.57 µM | > 100 µM | > 100 µM
COc1cc[nH]c1/C=C1\C(=O)Nc2ccc(F)c(C#C[C@@H](O)[C@@H](N)[C@@H](C)O)c21 | 671 nM | 6.85 µM | 745 nM | 2.7 µM | 0.673 µM | 5.14 µM | 0.909 µM | 5.51 µM | 0.663 µM | 2.42 µM | 0.526 µM | 2.54 µM | 504 nM | 1.7 µM | 0.51 µM | 8.38 µM | 415 nM | 5.73 µM | 0.642 µM | 1.65 µM
O=[N+]([O-])c1ccc(Sc2ncccn2)c([N+](=O)[O-])c1 | 2960 nM | 13.5 µM | 1930 nM | 7.36 µM | 7.35 µM | 19.8 µM | 10.8 µM | 23.1 µM | 5.08 µM | 19.6 µM | 4.28 µM | 18.2 µM | 1750 nM | 4.72 µM | 3.46 µM | 13.9 µM | 1360 nM | 3.59 µM | 1.27 µM | 4.19 µM
O/N=C1\CCc2cc(-c3nc(C4CCNCC4)[nH]c3-c3ccncc3)ccc21 | > 25000 nM | > 25 µM | > 25000 nM | > 25 µM | > 25 µM | > 25 µM | > 25 µM | > 25 µM | > 25 µM | > 25 µM | > 25 µM | > 25 µM | 3020 nM | 12.3 µM | > 25 µM | > 25 µM | > 25000 nM | > 25 µM | > 25 µM | > 25 µM
COc1cc(O)c(C(=O)/C=C/c2ccccc2)c(OC)c1 |  | 26.8 µM |  | 17.6 µM |  | > 100 µM |  | 14.6 µM |  | 20.8 µM |  | 12.8 µM |  | 18.2 µM |  | 11.6 µM |  | 18.2 µM |  | 16.2 µM
COc1ccc(/C(=C/c2cc(OC)c(OC)c(OC)c2)[N+](=O)[O-])cc1 | 1630 nM | 3.29 µM | 1300 nM | 2.62 µM | 2.01 µM | 4.09 µM | 1.68 µM | 3.64 µM | 1.79 µM | 3.64 µM | 2.29 µM | 5.78 µM | 1680 nM | 3.71 µM | 1.6 µM | 3.24 µM |  |  | 1.7 µM | 3.2 µM
O=C1c2ccccc2-c2c1c1ccccc1c(=O)n2CCO |  | > 100 µM |  | > 81 µM |  | > 100 µM |  | > 100 µM |  | > 100 µM |  | > 38.1 µM |  | > 100 µM |  | > 100 µM |  | > 51.7 µM |  | > 100 µM
OB([O][Hg][c]1ccccc1)[O][Hg][c]1ccccc1 | 334 nM | 2.01 µM | 539 nM | 1.63 µM | 1.88 µM | 3.33 µM | 1.46 µM | 2.84 µM | 1.06 µM | 2.5 µM | 1.52 µM | 4.33 µM | 244 nM | 0.788 µM | 0.266 µM | 0.799 µM | 639 nM | 2.01 µM | 0.226 µM | 0.779 µM
Cc1ccc(-c2c(C#N)c(N)nc(N3CCOCC3)c2C#N)o1 | 55500 nM | > 100 µM | 21200 nM | 84 µM | 27.4 µM | > 100 µM |  |  | > 100 µM | > 100 µM | 46.8 µM | > 100 µM | 43400 nM | > 100 µM | 41.6 µM | > 100 µM |  |  | 62.9 µM | > 100 µM
COc1cc(-c2cc(C(=O)N3CCN(C(=O)c4ccccc4NCc4ccco4)CC3)nc3cc(-c4ccccc4)nn23)cc(OC)c1OC | > 26100 nM | > 100 µM | 3710 nM | > 100 µM | 9.66 µM | > 100 µM | 7.87 µM | > 100 µM | 4.38 µM | > 100 µM | 5.48 µM | > 100 µM | 7580 nM | > 100 µM | 6.7 µM | > 100 µM | 1340 nM | > 100 µM | 4.27 µM | > 100 µM
O=C(Nc1ccncc1)C(=O)c1cn(S(=O)(=O)c2ccc(Br)cc2)c2ccccc12 | 15100 nM | > 100 µM | > 100000 nM | > 100 µM | > 100 µM | > 100 µM | 14.1 µM | > 100 µM | 8.47 µM | > 100 µM | 20.9 µM | > 100 µM | 24200 nM | > 100 µM | 43.5 µM | > 100 µM | 4440 nM | > 100 µM | 11.8 µM | > 100 µM
COc1cc2cc(Oc3ccc(NC(=O)Nc4cccc(C(F)(F)F)c4)cc3)c(C)nc2cc1OCCN1CCCCC1 | 1660 nM | 3.39 µM | 1450 nM | 2.79 µM | 1.87 µM | 3.29 µM | 1.66 µM | 3.1 µM |  |  | 1.92 µM | 4.62 µM | 1630 nM | 3.07 µM | 1.66 µM | 3.15 µM | 1400 nM | 2.82 µM | 1.78 µM | 3.28 µM
Cc1ccc(S(=O)(=O)N/N=C/C(Br)=C(/Br)C(=O)O)cc1 |  | 19.7 µM |  | 20 µM |  | > 55.5 µM |  | 28.8 µM |  | 30.2 µM |  | 27.9 µM |  | 14.3 µM |  | 25.6 µM |  | 18.1 µM |  | 20.7 µM
COC(=O)[C@]12CC[C@@H](C)[C@H](C)[C@@H]1C1=CC[C@@H]3[C@@]4(C)CC(=O)[C@H](O)[C@@]5(C)COC(=C45)C[C@@]3(C)[C@]1(C)CC2 | 17100 nM | 36 µM | 16900 nM | 32.8 µM | 18.4 µM | 37.7 µM | 19 µM | 42.1 µM | 19.2 µM | 37.8 µM | 17.7 µM | 38.7 µM | 16200 nM | 30.7 µM | 19 µM | 39.2 µM | 15600 nM | 29.3 µM | 17.3 µM | 33.5 µM
C1=CN2C[n+]3cccc(OCc4ccccc4)c3N=C2C(OCc2ccccc2)=C1 |  | 82.9 µM |  | > 100 µM |  | > 100 µM |  | 27.2 µM |  | > 100 µM |  | > 100 µM |  | 30.6 µM |  | 25.3 µM |  | 73.1 µM |  | 3.25 µM
O=S(=O)(c1ccc(NC(=S)N/N=C/c2ccccc2O)cc1)N1CCCCC1 |  | > 71.4 µM |  | > 41.9 µM |  | 18.3 µM |  | > 100 µM |  | 6.9 µM |  | 0.803 µM |  | 1.43 µM |  | 3.92 µM |  | 0.671 µM |  | > 100 µM
COc1ccc(-c2cc(-c3ccc(Nc4nc(Nc5ccc(Cl)cc5)nc(Nc5ccc(Cl)cc5)n4)cc3)nc(N)c2C#N)cc1 | 2510 nM | > 100 µM | 1570 nM | 3.26 µM | 4.14 µM | 24 µM |  | > 24.1 µM | 2.88 µM | 8.38 µM | 0.676 µM | 1.89 µM | 1730 nM | 3.49 µM | 2.58 µM | > 100 µM | 1470 nM | 4.38 µM | 3.06 µM | 9.11 µM
O=C1c2cc3c(cc2-c2c1c1cc(Cl)c(Cl)cc1c(=O)n2CCCn1ccnc1)OCO3 | 49.5 nM | > 100 µM | < 10 nM | > 100 µM | 0.0239 µM | > 100 µM | < 0.01 µM | > 100 µM | < 0.01 µM | > 100 µM | < 0.01 µM |  | 23.2 nM | 17 µM |  |  | < 10 nM | > 100 µM | 0.0114 µM | 28.1 µM
